Assay results from US10759777B2, “Carbazole-containing amides, carbamates, and ureas as cryptochrome modulators” (Synchronicity Pharma, Inc., priority 2014, dated 2020).
Each block holds one compound with its values, some of them ahead of it.

Tests used:
[1] = tested on: core clock genes Per2, Bmal1, Cry2 in liver; test: Four day study, liver core clock gene mRNA in ICR mice; assay type: in vivo, mouse; details: 50 mg/kg PO BID 4 days; for liver Per2 expression: ZT6
Procedure: Male ICR mice (weighing 30-35 g), obtained from Charles River Laboratories (Hollister, Calif.), were used for the experiment following at least 3 days of acclimation. Mice were dosed with vehicle (WFI or 10% Kolliphor) or compound (50 mg/kg, dose volume 5 mL/kg, PO) for 4 days BID (twice a day), beginning in the afternoon of the first day. The last dose of compound or vehicle was administered on the morning of harvest. On the day of harvest (6 hours following the final dose), mice were euthanized by CO2 asphyxiation and 50 mg of liver tissue was excised and placed in a tube containing 500 μl of RNA later.
E.Z.N.A.® HP Total RNA Isolation Kits (R6812-01 and the protocol described in the Manual, Revised 2010) were utilized to prepare and isolate RNA from the liver samples. To prepare the RNA samples, 10-30 mg of sample was removed from RNA-Later and placed in a 1.5 ml microfuge tube. GTC lysis buffer (700 μl) was added to the tissue, which was homogenized with a rotor-stator homogenizer (e.g. Tissue-Tearor, Model #985370 BioSpec Products with 4.5 mm probe, Cat. #985370-04), and then centrifuged at full speed (≥13,000×g) for 5 minutes. The cleared supernatant was transferred by pipetting to a DNA Clearance Column Pre-inserted in a 2 mL Collection Tube. The assembled column was centrifuged at 13,000×g for 1 minute, and the flow-through was saved. An equal volume (700 μl) of 70% ethanol was added to the lysate and mixed. The sample was then applied to a HiBind RNA spin column placed into a 2 ml collection tube, which was centrifuged at 10,000×g for 60 seconds at room temperature. RNA Wash Buffer I (250 μl) was added by pipetting directly onto a new HiBind RNA column inserted in a 2 ml collection tube. The assembled column was centrifuged at 10,000×g for 60 seconds. The RNA column was placed into a new 2 ml collection tube. DNase I stock solution is pipetted (75 μl) directly onto the surface of the HiBind RNA resin in each column (Using DNAse Digestion with RNase Free DNase Set (E1091): for each HiBind RNA column, the DNase I stock solution was prepared as followed: E.Z.N.A.® DNase I Digestion Buffer 73.5 μl, RNase Free DNase I (20 Kunitz/μl) 1.5 μl=Total Volume 75 μl). The column with bound RNA was incubated at room temperature (25-30° C.) for 15 minutes. RNA Wash Buffer I (500 μl) was added to the column and placed on a bench top for 2 minutes. After centrifuging at 10,000×g for 60 seconds, discarding the flow-through, 500 μl of RNA Wash Buffer II was added and centrifuged at 10,000×g for 60 seconds. Another 500 μl of RNA Wash Buffer II was added and the column assembly was centrifuged at 10,000×g for 60 seconds. The column was centrifuged for 2 minutes at maximum speed to completely dry the HiBind matrix. The column was placed in a clean 1.5 ml microcentrifuge tube and 40-70 μl of molecular biology grade water is added. After sitting for 1 minute, the column was centrifuged for 2 minutes at maximum speed to elute the RNA. The isolated RNA was collected into the collection tube.
RediPlate 96 RiboGreen RNA Quantification Kit (Invitrogen) RediPlate standard curve was prepared by transferring 20 l reconstituted RNA standard to a RediPlate well reconstituted in 180 l RediPlate TE buffer. For liver RNAs prepared from 30-100 mg of tissue using a kit similar to the Omega Bio-Tek HP Total RNA Kit and eluted in RNAse-free water in a volume of 50 l (microliters), 5 l of the total RNA is diluted in 195 l of RediPlate TE buffer (1:40 dilution of RNA), mix. After transferring 5 l to RediPlate well reconstituted in 195 l TE buffer and incubating 10 min. at RT, Fluorescence Intensity of wells with standards and samples were read in a Tecan M200 with Excitation set at 480 nm and Emission set at 520 nm with the gain set to ˜70%. Alternatively, one can use the FlexStation 3 with Ex 488 nm and Em 525 nm and a Cutoff of 515 nm.

[2] = tested on: stable U20S reporter cells harboring Per2-dLuc; test: Per2 assay for evaluating the potency of test compounds (Per2-dLuc luminescence amplitude); assay type: cell-based
Procedure: Compounds were screened by using a high-throughput circadian assay system as previously described in Zhang, E. E. et al. Cell, 2009, 139, 199-210. In brief, stable U20S reporter cells harboring Per2-dLuc were plated at a density of 30,000 cells/well in Corning 96-well, solid white, flat bottom, TC-treated microplates (Corning®), and incubated for 48 hours at 37° C. in the presence of 5% CO2 in a medium of Dulbecco's Modified Eagle Medium (DMEM) supplemented with 10% fetal bovine serum (FBS) and penicillin (100 units/mL)-streptomycin (100 μg/mL). […] DMSO stocks are then serially diluted in DMSO, typically diluting 3-fold for each dilution step. […] Immediately following synchronization, 1 μL of compound dilution is added to each well. Plates are sealed, shaken briefly, and gene expression was monitored by measuring luminescence (Tecan® Infinite M200 or Tecan® Infinite M200 Pro) continuously for a minimum of 3 days at 35° C. Raw luminescence data (counts) are first analyzed using Multicycle™ software (Actimetrics, Inc.) to determine the amplitude (amp), period, and phase (phz) for each compound concentration. The period length for control wells (i.e. no compound, DMSO only) should be 26-30 h. Amp data are then plotted against the logarithm compound concentration (M) and analyzed by nonlinear regression analysis to determine the EC50.

[3] = tested on: rat model of cortisone-induced insulin resistance; test: Cortisone induced insulin resistance in rats; assay type: in vivo; details: cortisone 30 mg/kg sc with vehicle po
Procedure: Animals were dosed with cortisone (30 mg/kg sc qd) in combination with test compounds for 6 days and then terminated 27 hours after the final dose of cortisone. A reference standard (Mifepristone) was also included. Cortisone 21-acetate (Sigma C-3130) was supplied by RenaSci and administered using a dose volume of 5 ml/kg via the subcutaneous route as a fine suspension in 1% methylcellulose. […] Mifepristone (Sigma M8046) was provided by RenaSci.
Glucose and insulin determinations were performed on plasma samples obtained from a tail vein bleed taken after a 12 h fast, approximately 27 h after the last cortisone dose. Animals were then terminated and a terminal (cardiac) blood sample taken from which plasma was prepared.
Thirty four male Sprague Dawley rats (weight range 200-250 g) were ordered from Charles River, Margate, Kent, UK. […] Subsequently, animals underwent a 3 day baseline period during which they were dosed once daily with vehicle at t=0 h (07:00). […] Body weight was recorded immediately before dosing began at 07:00 (t=0 h).
On Day 6 of dosing rats were fasted for 12 h beginning at 22:30 (timed to coincide with the Day 7 termination). […] At 10:30 on Day 7, 27 h after the final dose of cortisone, a blood sample (300 μl) was taken from the lateral tail vein into tubes containing EDTA (Sarstedt 16.444). The blood was centrifuged and resultant plasma aliquot stored at −75° C. The animals were euthanized by CO2 asphyxiation followed by cervical dislocation. Terminal blood (approximately 10 ml) was collected by cardiac puncture into tubes containing EDTA (Sarstedt 5 ml 32.332) and then centrifuged and plasma stored at −75° C. The tail vein plasma was analyzed for glucose (n=2) using a commercial clinical reagent (Thermoelectron Infinity glucose reagent (TR15421) and for insulin (n=1) using the Mercodia ultrasensitive rat insulin rat ELISA (10-1251-10).
Plasma glucose and insulin were analyzed by robust regression or general linear model with treatment as a factor and bleeding order and baseline body weight as covariates. A log transformation was used if appropriate. Appropriate multiple comparison tests (two-tailed) were used to determine significant differences from the vehicle group and from the Cortisone group. P<0.05 was considered to be statistically significant.

SMILES: COC1CCCN(CC(O)Cn2c3ccc(F)cc3c3cc(F)ccc32)C1=O (stereo not drawn) [Compound 57, 1-(3-(3,6-difluoro-9H-carbazol-9-yl)-2-hydroxypropyl)-3-methoxypiperidin-2-one]
liver Per2 expression [1]: suppression | increase in Bmal1 mRNA at ZT6 ([1]; liver): ≥ 2 fold

SMILES: O=C1C2CCC(C2)N1CC(O)Cn1c2ccc(F)cc2c2cc(F)ccc21 (stereo not drawn) [Compound 48, 2-(3-(3,6-difluoro-9H-carbazol-9-yl)-2-hvdroxypropyl)-2-azabicyclo[2.2.1]heptan-3-one]
liver Per2 expression [1]: suppression | Cry2 transcripts ([1]; liver): decrease | increase in Bmal1 mRNA at ZT6 ([1]; liver): 8 fold

EC50 [2]: 520 nM
SMILES: C[C@@H]1CN(C[C@H](O)Cn2c3ccccc3c3ccccc32)C(=O)N1 [Compound 138, (R)-1-((R)-3-(9H-carbazol-9-yl)-2-hydropropyl)-4-methylimidazolidin-2-one]

SMILES: C[C@]12CCC(=O)C=C1CC[C@@H]1[C@@H]2C(=O)C[C@@]2(C)[C@H]1CC[C@]2(O)C(=O)CO [Cortisone]
HOMA-IR [3]: 95.57+/−11.4 units | fasted plasma insulin [3]: 8.19 ± 0.91 ng/mL | fasted plasma glucose ([3]; rats): 10.17 ± 0.51 mM
